The results in this text go back to patent publication US8865714B2, “Piperazine compound capable of inhibiting prostaglandin D synthase” (Taiho Pharmaceutical Co., Ltd., priority 2009, dated 2014).

The test addresses human H-PGDS (Homo sapiens (Human), UniProt O60760). The test is described as follows: Hematopoietic prostaglandin D synthase (H-PGDS) inhibiting action. Format: biochemical. As to conditions: for inhibition at 0.1 µM / H-PGDS inhibition rate (%): compound at 0.1 μM, relative to the control group; for inhibition at 0.1 µM: read-out: H-PGDS inhibition rate (%). How it is done: More specifically, the reaction mixture (49 μL) containing 100 mM Tris-HCl (pH 8.0), 1 mM reduced glutathione, 0.1 mg/mL γ-globulin, and human H-PGDS (q.s.), and a compound (final concentration: 0.01-100 μM) was preincubated at 25° C. for 5 minutes. Note that a DMSO solution (final concentration: 1%) was added to the solvent control group. Subsequently, 1 μL of [14C] prostaglandin H2 (final concentration: 10 μM) was added to start the reaction. One minute after the start of the reaction, 250 μL of a reaction stopper solution (diethylether/methanol/1 M citric acid (30/4/1) at a temperature of −20° C. was added to stop the reaction. After the reaction was stopped, 50 μL of the upper layer portion (organic solvent phase) was applied to a TLC plate and developed at −20° C. for 45 minutes (developing solvent: diethylether/methanol/acetic acid (90/2/1)). After drying the TLC plate, the TLC plate was exposed to an imaging plate for 1 to 24 hours, and the radioactivity corresponding to prostaglandin D2 (PGD2) was analyzed using an image analyzer (produced by Fujifilm Corporation).

Setting [1] is: human H-PGDS, [14C] prostaglandin H2 10 μM.
Setting [2] is: human H-PGDS, [14C] prostaglandin H2 10 μM, read-out: IC50.

Like-named read-outs stand apart in the source and are kept apart here.

Chain of human H-PGDS (O60760 whole entry): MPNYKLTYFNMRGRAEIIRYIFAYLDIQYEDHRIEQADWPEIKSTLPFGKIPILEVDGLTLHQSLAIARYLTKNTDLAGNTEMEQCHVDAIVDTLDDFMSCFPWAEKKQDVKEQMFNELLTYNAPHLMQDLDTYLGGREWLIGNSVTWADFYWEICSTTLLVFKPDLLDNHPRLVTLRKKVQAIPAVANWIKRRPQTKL

On to `Cn1cccc1C(=O)N1CCN(C(=O)Nc2ccc(N3CCC(CCn4cncn4)CC3)cc2)CC1` [Example 8, 4-((1-methylpyrrol-2-yl)-carbonyl)-N-(4-(4-(2-(1,2,4-triazol-1-yl)-ethyl)piperidin-1-yl)-phenyl)-1-piperazinecarboxamide], for which, under setting [1], the inhibition – broadly, the share of the control response that was lost under treatment – at 0.1 µM was 58.9%. The IC50 (usually the concentration that gives 50% inhibition) under setting [2] is 62 nM.

The compound `O=C(Nc1ccc(C(F)(F)F)cc1)N1CCN(C(=O)c2cccc(F)n2)CC1` [Reference Example 18, 4-(6-fluoropyridine-2-carbonyl)piperazine-1-carboxylic acid-(4-trifluoromethylphenyl)amide] yielded an IC50 greater than 1000 nM.

On to `Cn1cccc1C(=O)N1CCN(C(=O)Nc2ccc(N3CCC(C(=O)NCCN4CCOCC4)CC3)cc2)CC1` [Example 16, 4-((1-methylpyrrol-2-yl)-carbonyl)-N-(4-(4-(2-morpholinoethylcarbamoyl)piperidin-1-yl)-phenyl)-1-piperazinecarboxamide], for which the inhibition at 0.1 µM under setting [1] turned out to be 61.1%.

Regarding `Cc1nc(C)n(CCC2CCN(c3ccc(NC(=O)N4CCN(C(=O)c5cccn5C)CC4)cc3)CC2)n1` [Example 9, 4-((1-methylpyrrol-2-yl)-carbonyl)-N-(4-(4-(2-(3,5-dimethyl-1,2,4-triazol-1-yl)-ethyl)piperidin-1-yl)-phenyl)-1-piperazinecarboxamide], the inhibition at 0.1 µM under setting [1] turned out to be 54.8%.

In the case of `Cn1cccc1C(=O)N1CCN(C(=O)Nc2ccc(N3CCC(CN4CCOCC4)CC3)cc2)CC1` [Example 4, 4-((1-methylpyrrol-2-yl)-carbonyl)-N-(4-(4-morpholinomethylpiperidin-1-yl)-phenyl)-1-piperazinecarboxamide], under setting [1], the inhibition at 0.1 µM is 61.5%.

As to `O=C(Nc1ccc(N2CCC(C(=O)N3CCOCC3)CC2)cc1)N1CCN(C(=O)c2ccno2)CC1` [Reference Example 8, 4-((isoxazol-5-yl)-carbonyl)-N-(4-(4-morpholin-1-yl-carbonylpiperidin-1-yl)-phenyl)-1-piperazinecarboxamide], the “H-PGDS inhibition rate (%)” value under setting [1] was −6.6%. The IC50 under setting [2] was greater than 1000 nM.

For the compound `O=C(Nc1ccc(N2CCC(C(=O)N3CCOCC3)CC2)cc1)N1CCN(C(=O)C2CCCC2)CC1` [Reference Example 10, 4-(cyclopentylcarbonyl)-N-(4-(4-morpholin-1-yl-carbonylpiperidin-1-yl)-phenyl)-1-piperazinecarboxamide], the “H-PGDS inhibition rate (%)” value under setting [1] is −2.2%. In addition, the IC50 under setting [2] is greater than 1000 nM.

As to `Cn1cccc1C(=O)N1CCN(C(=O)Nc2ccc(N3CCC(CCN4CCOCC4)CC3)cc2)CC1` [Example 6, 4-((1-methylpyrrol-2-yl)-carbonyl)-N-(4-(4-morpholinoethylpiperidin-1-yl)-phenyl)-1-piperazinecarboxamide], the inhibition at 0.1 µM under setting [1] was determined as 68.3%.

For `O=C(Nc1ccc(N2CCC(C(=O)N3CCOCC3)CC2)cc1)N1CCN(C(=O)c2ccccc2)CC1` [Reference Example 11, 4-(benzoyl)-N-(4-(4-morpholin-1-yl-carbonylpiperidin-1-yl)-phenyl)-1-piperazinecarboxamide], the “H-PGDS inhibition rate (%)” value under setting [1] was 15.8%. Besides, the IC50 under setting [2] worked out at 437 nM.

In the case of `O=C(Nc1ccc(N2CCC(C(=O)N3CCOCC3)CC2)cc1)N1CCN(C(=O)c2ccco2)CC1` [Reference Example 6, 4-((furan-2-yl)-carbonyl)-N-(4-(4-morpholin-1-yl-carbonylpiperidin-1-yl)-phenyl)-1-piperazinecarboxamide], the “H-PGDS inhibition rate (%)” value under setting [1] is given as −2.7%. Further, under setting [2], the IC50 is greater than 1000 nM.

For “4-((1-methylpyrrol-2-yl)-carbonyl)-N-(4-(4-(3-(1,2,4-triazol-1-yl-propyl)piperidin-1-yl)-phenyl)-1-piperazinecarboxamide [Example 11]”, under setting [1], the “H-PGDS inhibition rate (%)” value is 71.3%. In addition, the IC50 under setting [2] is 46 nM.

`O=C(Nc1ccc(N2CCC(C(=O)N3CCOCC3)CC2)cc1)N1CCN(C(=O)c2cccs2)CC1` [Reference Example 4, 4-((thiophen-2-yl)-carbonyl)-N-(4-(4-morpholin-1-yl-carbonylpiperidin-1-yl)-phenyl)-1-piperazinecarboxamide]: the “H-PGDS inhibition rate (%)” value under setting [1] came out at 18.0%. The half-maximal inhibitory concentration (IC50) under setting [2] was found to be 340 nM.

Take `O=C(Nc1ccc(N2CCC(C(=O)N3CCOCC3)CC2)cc1)N1CCN(C(=O)c2ccoc2)CC1` [Reference Example 7, 4-((furan-3-yl)-carbonyl)-N-(4-(4-morpholin-1-yl-carbonylpiperidin-1-yl)-phenyl)-1-piperazinecarboxamide]: the “H-PGDS inhibition rate (%)” value under setting [1] is listed as −4.2%. Also, the IC50 under setting [2] is greater than 1000 nM.

Take `Cn1cccc1C(=O)N1CCN(C(=O)Nc2ccc(N3CCC(CCn4ccnn4)CC3)cc2)CC1` [Example 7, 4-((1-methylpyrrol-2-yl)-carbonyl)-N-(4-(4-(2-(1,2,3-triazol-1-yl)-ethyl)piperidin-1-yl)-phenyl)-1-piperazinecarboxamide]: under setting [1], the inhibition at 0.1 µM worked out at 66.7%.

As for `Cn1cccc1C(=O)N1CCN(C(=O)Nc2ccc(N3CCC(CCn4cncn4)C3)cc2)CC1` (stereo not drawn) [Example 5, 4-((1-methylpyrrol-2-yl)-carbonyl)-N-(4-(3-(2-(1,2,4-triazol-1-yl)-ethyl)pyrrolidin-1-yl)-phenyl)-1-piperazinecarboxamide], the inhibition at 0.1 µM under setting [1] amounted to 55.5%.

`Cn1cccc1C(=O)N1CCN(C(=O)Nc2ccc(N3CCC(C(=O)NCc4cccnc4)CC3)cc2)CC1` [Example 17, 4-((1-methylpyrrol-2-yl)-carbonyl)-N-(4-(4-(pyridin-3-ylmethylcarbamoyl)piperidin-1-yl)-phenyl)-1-piperazinecarboxamide]: the inhibition at 0.1 µM under setting [1] turned out to be 61.7%.

Regarding `Cn1cccc1C(=O)N1CCN(C(=O)Nc2ccc(N3CCC(CCn4cccn4)CC3)cc2)CC1` [Example 10, 4-((1-methylpyrrol-2-yl)-carbonyl)-N-(4-(4-(2-(pyrazol-1-yl)-ethyl)piperidin-1-yl)-phenyl)-1-piperazinecarboxamide], the inhibition at 0.1 µM under setting [1] was 74.3%.

As to `Cn1cccc1C(=O)N1CCN(C(=O)Nc2ccc(N3CCC(O)CC3)cc2)CC1` [Example 1, N-(4-(4-hydroxypiperidin-1-yl)-phenyl)-4-((1-methylpyrrol-2-yl)-carbonyl)-1-piperazinecarboxamide], the inhibition at 0.1 µM under setting [1] worked out at 62.2%. For the same compound, the IC50 under setting [2] came to 58 nM.

Regarding “4-((1-ethylpyrrol-2-yl)-carbonyl)-N-(4-(4-morpholin-1-yl-carbonylpiperidin-1-yl)-phenyl)-1-piperazinecarboxamide [Example 13]”, under setting [1], the “H-PGDS inhibition rate (%)” value amounted to 51.8%. For the same compound, under setting [2], the IC50 turned out to be 91 nM.

As to “4-((1-methylindol-2-yl)-carbonyl)-N-(4-(4-morpholin-1-yl-carbonylpiperidin-1-yl)-phenyl)-1-piperazinecarboxamide [Reference Example 12]”, the “H-PGDS inhibition rate (%)” value under setting [1] is −0.4%. Besides, the IC50 under setting [2] was greater than 1000 nM.

For `Cn1cccc1C(=O)N1CCN(C(=O)Nc2ccc(N3CCC(C(=O)N4CCCCC4)CC3)cc2)CC1` [Example 14, 4-((1-methylpyrrol-2-yl)-carbonyl)-N-(4-(4-piperidin-1-yl-carbonylpiperidin-1-yl)-phenyl)-1-piperazinecarboxamide], the inhibition at 0.1 µM under setting [1] turned out to be 73.6%.

Take `Cn1cccc1C(=O)N1CCN(C(=O)Nc2ccc(N3CCC(CCCn4ccnn4)CC3)cc2)CC1` [Example 12, 4-((1-methylpyrrol-2-yl)-carbonyl)-N-(4-(4-(3-(1,2,3-triazol-1-yl)-propyl)piperidin-1-yl)-phenyl)-1-piperazinecarboxamide]: the inhibition at 0.1 µM under setting [1] worked out at 72.7%.

For the compound “4-((((1-methylpyrrol-2-yl)-carbonyl)-1-piperazinyl)carbonyl)amino-4-phenylpiperidine-4-carboxylic acid [Example 2]”, the “H-PGDS inhibition rate (%)” value under setting [1] amounted to 53.7%. The IC50 under setting [2] was 86 nM.

For the compound `CN1CCN(C(=O)C2CCN(c3ccc(NC(=O)N4CCN(C(=O)c5cccn5C)CC4)cc3)CC2)CC1` [Example 15, 4-((1-methylpyrrol-2-yl)-carbonyl)-N-(4-(4-(4-methylpiperazin-1-yl-carbonyl)piperidin-1-yl)-phenyl)-1-piperazinecarboxamide], under setting [1], the inhibition at 0.1 µM amounted to 61.3%.

Turning to `Cn1ccnc1C(=O)N1CCN(C(=O)Nc2ccc(N3CCC(C(=O)N4CCOCC4)CC3)cc2)CC1` [Reference Example 9, 4-((1-methylimidazol-2-yl)-carbonyl)-N-(4-(4-morpholin-1-yl-carbonylpiperidin-1-yl)-phenyl)-1-piperazinecarboxamide], under setting [1], the “H-PGDS inhibition rate (%)” value is −2.8%. Further, under setting [2], the IC50 is greater than 1000 nM.

Regarding `O=C(Nc1ccc(N2CCC(C(=O)N3CCOCC3)CC2)cc1)N1CCN(C(=O)c2ccsc2)CC1` [Reference Example 5, 4-((thiophen-3-yl)-carbonyl)-N-(4-(4-morpholin-1-yl-carbonylpiperidin-1-yl)-phenyl)-1-piperazinecarboxamide], the “H-PGDS inhibition rate (%)” value under setting [1] was 9.4%. Moreover, the IC50 under setting [2] was 732 nM.

Turning to `Cn1ccc(C(=O)N2CCN(C(=O)Nc3ccc(N4CCC(C(=O)N5CCOCC5)CC4)cc3)CC2)c1` [Reference Example 3, 4-((1-methylpyrrol-3-yl)-carbonyl)-N-(4-(4-morpholin-1-yl-carbonylpiperidin-1-yl)-phenyl)-1-piperazinecarboxamide], the “H-PGDS inhibition rate (%)” value under setting [1] is given as −4.8%. Moreover, the IC50 under setting [2] was greater than 1000 nM.
